Experimental data from patent US12559461B2, “Antibiotic adjuvant compounds” (UNIVERSITY OF NOTRE DAME DU LAC, priority 2020, dated 2026).

Tests used:
AB5075 [1] = experiment: Broth microdilution MIC of compound alone (standalone toxicity); format: cell-based, Acinetobacter baumannii
Description: (§1) Bacterial Strains and Antimicrobial Agents. Acinetobacter baumannii clinical isolate 5075 was obtained from Dr. Colin Manoil at the University of Washington. Colonies were grown on lysogeny broth (LB) agar. Cation-adjusted Mueller-Hinton Broth (CAMHB) (catalog number 212322) were purchased from BD Diagnostics. LB broth was purchased from Fisher Scientific (catalog number BP9722-2). […] Colistin sulfate salt (catalog number C4461) was purchased from Sigma Aldrich. All assays were completed in duplicate and repeated at least two separate times. All compounds were dissolved as their HCl salts in molecular biology grade DMSO as 10 or 100 mM stock solutions and stored at −20° C. Colistin was dissolved in sterile water while clarithromycin was dissolved in molecular biology grade DMSO.
Broth microdilution method for MIC determination. Day cultures (6 h) of each bacterial strain in cation adjusted Mueller Hinton II broth (CAMHB, Fisher Scientific U.S.) were subcultured to 5×10^5 CFU/mL in CAMHB. Aliquots (1 mL) were placed in culture tubes and compound was added from 10 mM stock samples in DMSO, such that compound concentration equaled highest concentration tested (200 μM). Samples were then aliquoted (200 μL) into the first wells of a 96-well plate, with all remaining wells being filled with 100 μL of initial bacterial subculture. Row one wells were mixed five times, before 100 μL was transferred to row two. Row two was then mixed five times, and 100 μL was transferred to row three. This process was repeated until the final row had been mixed; this served to serially dilute the compound. Plates were then covered with GLAD Press n'Seal and incubated under stationary conditions at 37° C. for 16 h. MIC values were then recorded as the lowest concentration at which no bacterial growth was observed.

AB5075 [2] = experiment: Broth microdilution clarithromycin (CLR) potentiation and dose-response of adjuvant; format: cell-based, Acinetobacter baumannii
Description: as §1
Broth microdilution method for antibiotic potentiation. Day cultures (6 h) of bacteria in CAMHB were subcultured to 5×10^5 CFU/mL in CAMHB. Aliquots (4 mL) were placed in culture tubes and dosed with compound from 10 mM stock samples to give the desired concentration of the compound to be tested against the particular bacterial strain; this insured non-toxic DMSO concentrations ≤0.3% in each well. 1 mL of the resulting solution was placed in a separate culture and dosed with antibiotic at the highest concentration to be tested. Bacteria treated with antibiotic alone served as the control. Row one of a 96-well plate was filled with 200 μL of the antibiotic/2-AI solution, and rows 2-12 were filled with 100 μL each of the remaining 4 mL of bacterial subculture containing adjuvant at the desired concentration, except for the control lane which contained only bacterial subculture. Row one was then mixed five times, and 100 μL was transferred to row two, which was then mixed five times before being transferred to row three. This process was repeated until all rows had been mixed, except for row twelve which would have only 2-AI to serve as a control to monitor potential toxicity. The 96-well plate was then covered in Glad Press n'Seal and incubated under stationary conditions at 37° C. for 16 h. MIC values were determined as the lowest concentration at which no bacterial growth was observed, and fold reductions were determined by comparison to antibiotic control lane.
Dose-response of Adjuvant Assay. The procedure for ‘broth microdilution method for antibiotic potentiation’ was followed using 4 mL aliquots of adjuvant at various concentrations: 0, 5, 7.5, 10, 15, 20, 25, and 30 μM.

Cl.Nc1nc(-c2ccc(NC(=O)c3cc(Cl)cc(Cl)c3)cc2Cl)c[nH]1 [Compound 10e, N-(4-(2-amino-1H-imidazol-4-yl)-3-chlorophenyl)-3,5-dichlorobenzamide hydrochloride]
MIC (AB5075 [1]; Acinetobacter baumannii): > 200 µM | CLR MIC (AB5075 [2]; compound tested at 10 μM): 8 µg/mL | CLR MIC (AB5075 [2]; compound tested at 20 μM): 0.5 µg/mL | Fold Reduction of CLR MIC (AB5075 [2]; compound tested at 20 μM): 64 fold | CLR MIC (AB5075 [2]; compound tested at 30 μM): 0.5 µg/mL | Fold Reduction of CLR MIC (AB5075 [2]; compound tested at 30 μM): 64 fold

Cl.Nc1nc(-c2ccc(NC(=O)c3cc(Br)cc(Br)c3)cc2F)c[nH]1 [Compound 15a, N-(4-(2-amino-1H-imidazol-4-yl)-3-fluorophenyl)-3,5-dibromobenzamide hydrochloride]
MIC (AB5075 [1]; Acinetobacter baumannii): > 200 µM | MIC (AB5075 [1]; hydrochloride): >200 µM | CLR MIC (AB5075 [2]; compound tested at 10 μM): 16 µg/mL | Fold Reduction of CLR MIC (AB5075 [2]; compound tested at 10 μM): 2 fold | CLR MIC (AB5075 [2]; compound tested at 20 μM): 8 µg/mL | Fold Reduction of CLR MIC (AB5075 [2]; compound tested at 20 μM): 4 fold | CLR MIC (AB5075 [2]; compound tested at 30 μM): 2 µg/mL | Fold Reduction of CLR MIC (AB5075 [2]; compound tested at 30 μM): 16 fold

Cl.Nc1nc(-c2ccc(NC(=O)c3ccc(C(F)(F)F)c(Cl)c3)cc2F)c[nH]1 [Compound 17a, N-(4-(2-amino-1H-imidazol-4-yl)-3-fluorophenyl)-3-chloro-4-(trifluoromethyl)benzamide hydrochloride]
MIC (AB5075 [1]; Acinetobacter baumannii): 50 µM | CLR MIC (AB5075 [2]; compound tested at 7.5 μM): 16 µg/mL | CLR MIC (AB5075 [2]; compound tested at 10 μM): 8 µg/mL | Fold Reduction of CLR MIC (AB5075 [2]; compound tested at 10 μM): 4 fold | CLR MIC (AB5075 [2]; compound tested at 15 μM): 0.25 µg/mL | Fold Reduction of CLR MIC (AB5075 [2]; compound tested at 15 μM): 128 fold
